From ChEMBL document CHEMBL1201862, “PubChem BioAssay data set” (2004) come the findings set out here.

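Growth conditions: 96-well plates. Treatment: test compound, 48 hours, 5 concentrations. Analysis: linear interpolation between bracketing concentrations; unreached endpoints set to highest concentration. At the GI50, growth is halved.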 The source made the active and inactive calls. Rule as the data show it: active = GI50 up to about 1.1 µM and inactive = higher. Where a SMILES comes first, the peptide text is derived from it. The star is where a group is joined. Boc = CC(C)(C)OC(=O)*; OSu = O=C1CCC(=O)N1O*

Among the test systems are A498; COLO 205; HCT-116; HCT-15; HOP-92; Hs-578T; IGROV-1; MDA-MB-435; MDA-N; MOLT-4; Malme-3M; OVCAR-5; PC-3; SK-MEL-28; TK-10; UO-31; ACHN; HL-60; MCF7; SF-539.
What all share (assay): NCI-60 cell line screen, 48 h

`O=S(=O)(O)c1c(/N=N/c2c(O)ccc3ccccc23)ccc2ccccc12`: the GI50 with A498 was > 100 µM (inactive); in the assay on COLO 205, 70.1 µM (inactive); in the assay on HCT-116, > 100 µM (inactive); in the assay with HCT-15, above 100 µM; with HOP-92, > 100 µM (inactive); in the assay with Hs-578T it was > 100 µM (inactive). Further, the GI50 with IGROV-1 is 79.8 µM (inactive); in the assay with MDA-MB-435 it was > 100 µM (inactive); in the assay on MDA-N, > 100 µM (inactive); with MOLT-4, > 100 µM (inactive); in the assay on Malme-3M it was 55.1 µM (inactive); with OVCAR-5, > 100 µM (inactive). Moreover, the GI50 is > 100 µM (inactive) in the assay with PC-3, > 100 µM (inactive) in the assay on SK-MEL-28, > 100 µM (inactive) in the assay with TK-10 and 76.7 µM (inactive) with UO-31.

As to `CC(C)CN1CN(c2ccccc2)C2(CCN(CC(C)(c3ccc(F)cc3)C3OCCO3)CC2)C1=O` (centres undefined), the GI50 in the assay on ACHN was 4.16 µM (inactive); with COLO 205, 1.65 µM (inactive); in the assay with HCT-116 it was 4.51 µM (inactive); in the assay on HCT-15, 3.27 µM; in the assay with HL-60, 2.68 µM (inactive); with Hs-578T, 3.66 µM (inactive). Moreover, the GI50 was 4.11 µM (inactive) with MCF7; 6.62 µM (inactive) with MDA-MB-435; 6.84 µM (inactive) with MDA-N; 2.4 µM (inactive) in the assay with MOLT-4; 4.89 µM (inactive) in the assay on Malme-3M; 13 µM (inactive) in the assay with OVCAR-5. Also, the GI50 in the assay on PC-3 is 3.55 µM (inactive); with SF-539, 5.18 µM (inactive); in the assay on SK-MEL-28, 3.18 µM (inactive); with TK-10, 10.8 µM (inactive); with UO-31 it was 2.7 µM (inactive).

As to `CN(c1ccccc1)S(=O)(=O)c1ccccc1[N+](=O)[O-]`, the GI50 was > 100 µM (inactive) with ACHN; > 100 µM (inactive) with COLO 205; 97.5 µM (inactive) in the assay on HCT-116; above 100 µM in the assay with HCT-15; > 100 µM (inactive) in the assay on HL-60; > 100 µM (inactive) with Hs-578T. Besides, the GI50 is > 100 µM (inactive) in the assay on IGROV-1; > 100 µM (inactive) in the assay with MCF7; 71.9 µM (inactive) in the assay on MDA-MB-435; > 100 µM (inactive) in the assay on MDA-N; 26.2 µM (inactive) in the assay on MOLT-4; > 100 µM (inactive) in the assay on Malme-3M. Besides, the GI50 with OVCAR-5 is > 100 µM (inactive); in the assay with PC-3, 57.9 µM (inactive); in the assay on SF-539 it was > 100 µM (inactive); with SK-MEL-28 it was > 100 µM (inactive); in the assay with TK-10, > 100 µM (inactive); in the assay with UO-31 it was > 100 µM (inactive).

Take `c1ccc(-c2nnn3c2NC2=C(CCCC2)C3c2ccccc2)cc1` (centres undefined): the GI50 with ACHN is 1.47 µM (inactive); in the assay with COLO 205 it was 16.5 µM (inactive); in the assay on HCT-116 it was 12 µM (inactive); with HCT-15, 1.54 µM; with HL-60, 18.5 µM (inactive); with Hs-578T, 24.9 µM (inactive). The GI50 was 17.5 µM (inactive) in the assay on IGROV-1; 17.1 µM (inactive) in the assay with MCF7; 5.71 µM (inactive) in the assay with MDA-MB-435; 12.9 µM (inactive) in the assay on MDA-N; 0.425 µM (active) with MOLT-4; 16 µM (inactive) in the assay with OVCAR-5. Also, the GI50 with PC-3 is 16.9 µM (inactive); with SF-539 it was 19.1 µM (inactive); in the assay with UO-31, 17.1 µM (inactive).

For the compound `CCOC(=O)CCc1cn2cc(Br)nc(OC)c2n1`, the GI50 is 9.12 µM (inactive) with COLO 205; 14.8 µM (inactive) with HCT-116; 6.5 µM with HCT-15; > 100 µM (inactive) in the assay with HL-60; > 100 µM (inactive) in the assay on Hs-578T; 65.6 µM (inactive) in the assay on IGROV-1. Also, the GI50 was 16.2 µM (inactive) in the assay with MCF7; 2.82 µM (inactive) with MDA-MB-435; 3.1 µM (inactive) in the assay with MDA-N; 13.3 µM (inactive) with MOLT-4; > 100 µM (inactive) in the assay on Malme-3M; 50.9 µM (inactive) with PC-3. Also, the GI50 in the assay on SF-539 is 50.5 µM (inactive); in the assay on SK-MEL-28, > 100 µM (inactive); in the assay on TK-10, > 100 µM (inactive); in the assay on UO-31 it was 23.2 µM (inactive).

Turning to `CCCC(=O)n1[nH]c(=O)n(-c2ccc(Cl)cc2)c1=O`, the GI50 in the assay on ACHN is > 100 µM (inactive); with COLO 205, > 100 µM (inactive); in the assay on HCT-116, > 100 µM (inactive); in the assay with HCT-15, above 100 µM; in the assay on HL-60, > 100 µM (inactive); in the assay on Hs-578T, > 100 µM (inactive). Further, the GI50 is > 100 µM (inactive) in the assay with IGROV-1; > 100 µM (inactive) in the assay on MCF7; > 100 µM (inactive) with MDA-MB-435; > 100 µM (inactive) in the assay with MDA-N; > 100 µM (inactive) in the assay on MOLT-4; 43.4 µM (inactive) in the assay with Malme-3M. Also, the GI50 in the assay on OVCAR-5, with PC-3, in the assay with SK-MEL-28, with TK-10 and with UO-31 was > 100 µM (inactive) each time.

Consider `Cc1cccc(-c2nc(-c3cnccn3)n(Cc3ccccc3)n2)c1`, for which the GI50 in the assay on COLO 205 is > 100 µM (inactive); in the assay with HCT-116, > 100 µM (inactive); in the assay with HCT-15, above 100 µM; in the assay with HL-60, > 100 µM (inactive); in the assay on HOP-92, 34 µM (inactive); in the assay on IGROV-1, > 100 µM (inactive). The GI50 in the assay on MCF7, in the assay on MDA-MB-435, in the assay with MDA-N, with MOLT-4, in the assay on OVCAR-5 and in the assay on PC-3 was > 100 µM (inactive) each time. Besides, the GI50 in the assay on SF-539 was > 100 µM (inactive); in the assay on SK-MEL-28, 68.5 µM (inactive); with UO-31 it was > 100 µM (inactive).

On to `CC(C)(C)OC(=O)NC(Cc1ccc(O)cc1)C(=O)NC(CCCCN)C(=O)NC(Cc1ccc(O)cc1)C(=O)NC(CCCCN)C(=O)ON1C(=O)CCC1=O` (centres undefined) (Boc-YKYK-OSu; configuration not given here), for which the GI50 is > 100 µM (inactive) in the assay on A498; > 100 µM (inactive) in the assay with ACHN; > 100 µM (inactive) in the assay with COLO 205; > 100 µM (inactive) with HCT-116; above 100 µM with HCT-15; > 100 µM (inactive) with HL-60. Moreover, the GI50 is > 100 µM (inactive) in the assay with HOP-92; > 100 µM (inactive) in the assay with Hs-578T; 85.3 µM (inactive) in the assay with IGROV-1; > 100 µM (inactive) with MCF7; > 100 µM (inactive) in the assay with MDA-N; > 100 µM (inactive) with MOLT-4. For the same compound, the GI50 with Malme-3M, in the assay with OVCAR-5, in the assay with PC-3, in the assay on SK-MEL-28, with TK-10 and in the assay with UO-31 was > 100 µM (inactive) each time.

In the case of `CC1=NN(c2cccc(Cl)c2)C(=N/c2nc3ccccc3s2)/C1=C\c1ccc(Cl)cc1`, the GI50 was 22.2 µM (inactive) in the assay with A498; 24.3 µM (inactive) in the assay on ACHN; 16.9 µM (inactive) in the assay on HCT-116; 14.2 µM with HCT-15; 22.4 µM (inactive) in the assay on HL-60; 17.4 µM (inactive) in the assay on HOP-92. The GI50 in the assay with Hs-578T was 23 µM (inactive); with IGROV-1, 13.5 µM (inactive); in the assay with MCF7 it was 22.2 µM (inactive); with MDA-N, 23.4 µM (inactive); with MOLT-4, 24.4 µM (inactive); in the assay with OVCAR-5, 22.6 µM (inactive). The GI50 with PC-3 is 16.4 µM (inactive); in the assay with SF-539 it was 18.4 µM (inactive); with SK-MEL-28, 20.8 µM (inactive); in the assay with TK-10 it was 26.4 µM (inactive); with UO-31, 23.9 µM (inactive).

Turning to `CC(=O)Nc1ccc(COC(O)CN2CCCCC2)cc1[N+](=O)[O-]` (centres undefined), the GI50 was > 100 µM (inactive) with A498; > 100 µM (inactive) in the assay on ACHN; > 100 µM (inactive) in the assay with COLO 205; > 100 µM (inactive) in the assay with HCT-116; above 100 µM in the assay with HCT-15; > 100 µM (inactive) in the assay with HL-60. For the same compound, the GI50 in the assay with HOP-92, with IGROV-1, in the assay on MCF7, with MDA-MB-435, in the assay on MDA-N and in the assay with MOLT-4 was > 100 µM (inactive) each time. Also, the GI50 in the assay on Malme-3M, in the assay on OVCAR-5, in the assay with PC-3, in the assay with SF-539, with SK-MEL-28 and with TK-10 was > 100 µM (inactive) throughout. In addition, in the assay with UO-31, the GI50 is > 100 µM (inactive).

For the compound `O=[N+]([O-])/C(C(Cl)=C(Cl)Cl)=C(\N1CCCCC1)n1cncn1`, the GI50 in the assay on A498 is 15.8 µM (inactive); in the assay with ACHN, 17.7 µM (inactive); in the assay with COLO 205, 15.7 µM (inactive); in the assay on HCT-116, 22.2 µM (inactive); in the assay on HCT-15 it was 16 µM; with IGROV-1, 9.08 µM (inactive). Moreover, the GI50 is 14.9 µM (inactive) with MCF7; 17.9 µM (inactive) in the assay on MDA-MB-435; 14.4 µM (inactive) in the assay with MDA-N; > 24.2 µM (inactive) with MOLT-4; 15.9 µM (inactive) in the assay on Malme-3M; 16.2 µM (inactive) in the assay on OVCAR-5. In addition, the GI50 in the assay on PC-3 was 16.4 µM (inactive); in the assay on SF-539, 17.1 µM (inactive); in the assay on SK-MEL-28 it was 16.3 µM (inactive); in the assay with TK-10, 17.2 µM (inactive); in the assay on UO-31 it was 15.9 µM (inactive).

For `CN(C)CCNC1=C(Cl)C(=O)c2c(O)ccc(O)c2C1=O`, the GI50 in the assay on A498 was 3.39 µM (inactive); with ACHN, 3.5 µM (inactive); in the assay with COLO 205 it was 1.93 µM (inactive); in the assay on HCT-116, 1.91 µM (inactive); in the assay with HCT-15, 2.51 µM; in the assay on HL-60, 2.38 µM (inactive). Further, the GI50 in the assay on HOP-92 was 2.17 µM (inactive); in the assay with Hs-578T, 2.99 µM (inactive); in the assay on IGROV-1, 1.6 µM (inactive); in the assay on MDA-MB-435, 1.71 µM (inactive); with MDA-N, 2.59 µM (inactive); in the assay on MOLT-4 it was 2.88 µM (inactive). Besides, the GI50 in the assay with Malme-3M was 2.09 µM (inactive); in the assay with OVCAR-5, 1.74 µM (inactive); with PC-3, 6.31 µM (inactive); with SF-539, 1.73 µM (inactive); with SK-MEL-28, 2.12 µM (inactive); in the assay with TK-10 it was 2.33 µM (inactive). Further, in the assay on UO-31, the GI50 was 2.02 µM (inactive).
